US9737073B2, “Herbicidal weed control from combinations of fluroxypyr and ALS inhibitors” (Dow AgroSciences LLC, priority 2014, dated 2017)

Experiments:
Type in all cases: in vivo
[1] = tested on: Sida cordifolia L. (heartleaf sida, SIDCO); experiment: Postemergence herbicidal weed control, fluroxypyr-meptyl and diclosulam, greenhouse trials (Table 1); conditions: 14DAA1, 200 g ae/ha
Method: (§1) Seeds of the desired test plant species were planted in a peat-based potting soil, Metro-Mix 360® in plastic pots with a surface area of 128 square centimeters (cm^2). Metro-Mix 360® consists of formulated Canadian sphagnum peat moss, coarse perlite, bark ash, a starter nutrient charge (with gypsum), a slow-release nitrogen and dolomitic limestone. The plants were grown for 7-19 days in a greenhouse with an approximate 14-hour (h) photoperiod which was maintained at about 29° C. during the day and 26° C. during the night. Nutrients and water were added on a regular basis and supplemental lighting was provided with overhead metal halide 1000-Watt lamps as necessary. The plants were treated with postemergence foliar applications when they reached the third to fourth true leaf stage. All treatments were applied using a randomized complete block trial design, with 4 replications per treatment.
Treatments consisted of the compounds as listed in Tables 1 to 4, each compound applied alone and in combination. […]
Treatments were rated at 7 to 21 days after application (DAA) as compared to the untreated control plants. Visual weed control was scored on a scale of 0 to 100 percent where 0 corresponds to no injury and 100 corresponds to complete kill. […]

[2] = tested on: Amaranthus palmeri S. Wats. (Palmer amaranth, AMAPA); experiment: Postemergence herbicidal weed control, fluroxypyr-meptyl and thifensulfuron-methyl, field trials (Table 4); conditions: 7DAA1, 50 g ae/ha
Method: as §1
(§2) Treatments consisted of the compounds as listed in Tables 1 to 4, each compound applied alone and in combination. Commercially formulated products of fluroxypyr-meptyl (STARANE™, 333 grams acid equivalent per liter (g ae/L) EC), diclosulam (SPIDER® 84WG), cloransulam-methyl (FIRSTRATE™ 84WG), chlorimuron-ethyl (CLASSIC® 25WG) and thifensulfuron-methyl (HARMONY® 50SG). Formulated amounts of fluroxypyr-meptyl, diclosulam, cloransulam-methyl, chlorimuron-ethyl and thifensulfuron-methyl were placed in 60 milliliter (mL) glass vials and dissolved in a volume of 30 or 60 mL of a water solution containing Agri-dex crop oil concentrate in a 1% volume per volume (v/v) ratio. Compound requirements are based upon either a 30- or a 60-mL application volume at a rate of 200 liters per hectare (L/ha). Spray solutions of the mixtures were prepared by adding the stock solutions to the appropriate amount of dilution solution to form either a 30- or a 60-mL spray solution with active ingredients in single and two-way combinations. Formulated compounds were applied to the plant material with an overhead Generation III Research Sprayer manufactured by DeVries Manufacturing in Hollandale, Minn., USA. The track sprayer was equipped with an 8003E nozzle calibrated to deliver 200 L/ha at a spray height of 18 inches (43 centimeters (cm)) above average plant canopy.
(§3) The treated plants and untreated control plants were placed in a greenhouse as described above and watered by sub-irrigation to prevent wash-off of the test compounds.
(§4) Treatments were rated at 7 to 21 days after application (DAA) as compared to the untreated control plants. Visual weed control was scored on a scale of 0 to 100 percent where 0 corresponds to no injury and 100 corresponds to complete kill.
(§5) Field trials were conducted using standard herbicide small plot research methodology. Plots varied from 3×3.3 meter (m) to 4.5×10 m (width×length) with 4 replicates per treatment. The crops used in the field trials were grown using normal cultural practices for land preparation, fertilization, seeding and maintenance to ensure good growth of the crop and the weeds.
(§6) All treatments in the field trials were applied using either pressurized air or carbon dioxide (CO2) backpack or bicycle sprayers calibrated to apply 100-187 L/ha spray volume. Flat Fan spray nozzles were used in all trials, with water as the diluent applied at 275-300 kilopascals (kPa). Weed sizes at application ranged from 10 to 40 cm tall. […]

[3] = tested on: Abutilon theophrasti (velvetleaf, ABUTH); experiment: as above; conditions: 14DAA1, 100 g ae/ha
Method: as §1, §2, §3, §4, §5, §6

[4] = tested on: Polygonum convolvulus L. (wild buckwheat, POLCO); experiment: as above; conditions: 21DAA1, 17.5 g ae/ha
Method: as §5
(§7) All treatments in the field trials were applied using either pressurized air or carbon dioxide (CO2) backpack or bicycle sprayers calibrated to apply 100-187 L/ha spray volume. Flat Fan spray nozzles were used in all trials, with water as the diluent applied at 275-300 kilopascals (kPa). Weed sizes at application ranged from 10 to 40 cm tall. Commercially available products of fluroxypyr-meptyl (STARANE™, 180 and 333 g ae/L EC), diclosulam (SPIDER® 84WG), and thifensulfuron-methyl (HARMONY® 75WG) were mixed in water at appropriately formulated product rates to achieve the desired rates based on a unit area of application (hectare) to achieve the desired rates as shown. No adjuvants were tank-mixed with any treatments applied in the field trials. Treatments were rated at 14-26 days after application as compared to the untreated control plants. Visual weed control was scored on a scale of 0 to 100 percent where 0 corresponds to no injury and 100 corresponds to complete kill.
(§8) The treated plots and control plots were rated blind at various intervals after application. Ratings were reported on a Percent (%) Visual Control basis, where 0 corresponds to no visual effect/weed control and 100 corresponds to complete kill of the target weeds.
(§9) Colby's equation was used to determine the herbicidal effects expected from the mixtures (Colby, S. R. Calculation of the synergistic and antagonistic response of herbicide combinations. Weeds 196715, 20-22). A t-test (alpha=0.05) between Colby predictions and observed combinations was used to test for significant differences indicating synergy or antagonism. The results presented in the Tables were significant according to the described criteria.
(§10) The following equation was used to calculate the expected activity of mixtures containing two active ingredients, A and B: Expected=A+B−(A×B/100) • A=observed efficacy of active ingredient A at the same concentration as used in the mixture; • B=observed efficacy of active ingredient B at the same concentration as used in the mixture.

[5] = tested on: Amaranthus retroflexus L. (redroot pigweed, AMARE); experiment: as above; conditions: 21DAA1, 17.5 g ae/ha
Method: as §5, §7, §8, §9, §10

[6] = tested on: Chenopodium album (common lambsquarters, CHEAL); experiment: as above; conditions: 21DAA1, 17.5 g ae/ha
Method: as §5, §7, §8, §9, §10

[7] = tested on: Commelina benghalensis (tropical spiderwort, COMBE); experiment: Postemergence herbicidal weed control, fluroxypyr-meptyl and diclosulam, greenhouse trials (Table 1)
Method: as §5, §7, §8, §9, §10

CCCCCCC(C)OC(=O)COc1nc(F)c(Cl)c(N)c1Cl (centres unmarked) [Fluroxypyr-meptyl, fluroxypyr-methylheptyl ester]
Fluroxypyr-meptyl Mean % weed control [1]: 30.0% | Fluroxypyr-meptyl Mean % weed control [2]: 48.8% | Fluroxypyr-meptyl Mean % weed control [3]: 80.8% | Fluroxypyr-meptyl Mean % weed control [4]: 2.5% | Fluroxypyr-meptyl Mean % weed control [5]: 3.8% | Fluroxypyr-meptyl Mean % weed control [6]: 3.8% | Fluroxypyr-meptyl Mean % weed control ([7]; 14DAA1, 200 g ae/ha): 27.5% | Fluroxypyr-meptyl Mean % weed control ([7]; 26DAA1, 200 g ae/ha): 25.0%
